In brackets after ≈: the same amount, converted by molar mass.
Legend:
E. Coli 114 Sensitive = assay: Two-fold tube dilution test vs. trimethoprim-sensitive E. coli (Table 4); assay type: cell-based; conditions: Escherichia coli, minimal medium, 37° C., 18 hours, read-out: Minimum Inhibitory Concentration
Experimental: (§1) Compounds V - VIII were tested and compared with trimethoprim, as control, against two external strains, (Escherichia coli) a sensitive No. 114 and a No. 114 carrying a resistant (R) factor which mediates the synthesis of an altered dihydrofolate reductase; S. G. R. Amyes and J. T. Smith, Biochem. and Biophys., Res. Comm., 58, 412 (1974).
(§2) The method used was a two-fold tube dilution test in 5 ml. amounts of minimal medium. The inoculum was 0.1 ml. of a 1:1T dilution of a 24 hour broth culture. The test was incubated at 37° C. for 18 hours.

E. Coli (Resistant) = assay: microbe, parasite or virus in culture; assay type: cell-based, Escherichia coli; conditions: for MIC: Escherichia coli, 18 h, read-out: Minimum Inhibitory Concentration
Experimental: as §1, §2

[1] = test system: Staphylococcus aureus 209P; assay: Tube dilution test, Mueller Hinton Medium (Table 3); assay type: cell-based; conditions: 18 h, read-out: Minimum Inhibitory Concentration
Experimental: (§3) Escherichia coli Juhl and Escherichia coli 3100. The method used was a two-fold tube dilution test in 5 ml. amounts of minimal medium. The inoculum was 0.1 ml. of a 1:1T dilution of a 24 hour broth culture. The test was incubated at 37° C. for 18 hours. A similar test was made on other strains with the compounds (V, VI, VII and VIII) in 5 ml. amounts of Mueller Hinton Medium.

[2] = test system: Streptococcus pyogenes C203; assay: as above; assay type: cell-based; conditions: 18 h, read-out: Minimum Inhibitory Concentration
Experimental: as §3

[3] = test system: Staphylococcus aureus Smith; assay: as above; assay type: cell-based; conditions: 18 h, read-out: Minimum Inhibitory Concentration
Experimental: as §3

[4] = test system: Klebsiella pneumoniae 8045; assay: Two-fold tube dilution test, minimal medium (Table 2); assay type: cell-based; conditions: 37° C., 18 hours, read-out: Minimum Inhibitory Concentration
Experimental: (§4) The four compounds, i.e., compounds V, VI, VII, VIII, were tested against a series of strains including:
(§5) Escherichia coli Juhl and Escherichia coli 3100. The method used was a two-fold tube dilution test in 5 ml. amounts of minimal medium. The inoculum was 0.1 ml. of a 1:1T dilution of a 24 hour broth culture. The test was incubated at 37° C. for 18 hours.

[5] = test system: Proteus mirabilis Finland #9; assay: as above; assay type: cell-based; conditions: 37° C., 18 hours, read-out: Minimum Inhibitory Concentration
Experimental: as §4, §5

[6] = test system: Enterobacter aerogenes 13048; assay: as above; assay type: cell-based; conditions: Klebsiella aerogenes, 37° C., 18 hours, read-out: Minimum Inhibitory Concentration
Experimental: as §4, §5

Escherichia coli Juhl = assay: as above; assay type: cell-based; conditions: 37° C., 18 hours, read-out: Minimum Inhibitory Concentration
Experimental: as §4, §5

Escherichia coli 3100 = assay: as above; assay type: cell-based; conditions: 37° C., 18 hours, read-out: Minimum Inhibitory Concentration
Experimental: as §4, §5

[7] = test system: Salmonella typhimurium Ed 9; assay: as above; assay type: cell-based; conditions: Salmonella enterica, 37° C., 18 hours, read-out: Minimum Inhibitory Concentration
Experimental: as §4, §5

P. Mirabilis = assay: Acute Mouse Protection Test (Table 6); assay type: in vivo, Female, Swiss albino mice; conditions: approximate, combination with sulfamethoxazole, medicated 1 and 5 hours post-infection, 7 days
Experimental: (§6) The test bacteria were transferred to Brain Heart Infusion Broth and incubated at 37° C. for 18 hours. Log dilutions of the organism were made in BHI broth and mixed with 3% hog gastric mucin.
(§7) Female, Swiss albino mice, 18 - 20 grams, were injected intraperitoneally with 0.75 ml. of inoculum.
(§8) The optimum dilution was one in which each mouse received 10 - 10 LD50 's of the infecting organism.
(§9) The test compound was diluted in such a way that there were 5 drug levels (each level is half as concentrated as the one above) in each test. Ten infected mice were treated with each level of drug. The mice were medicated 1 and 5 hours post-infection.

E. Coli (Juhl) = assay: Acute Mouse Protection Test (Table 6); assay type: in vivo, Female, Swiss albino mice; conditions: approximate, combination with sulfamethoxazole, medicated 1 and 5 hours post-infection, 7 days
Experimental: as §6, §7, §8, §9

E. Coli 3100 = assay: In vitro potentiation of sulfonamides, two-fold tube dilution test in BBL Nutrient broth (Table 5); assay type: cell-based, Escherichia Coli; conditions: MIC of sulfonamide alone vs in combination
Experimental: The potentiation properties of the compounds, i.e., compounds V - VIII in various combinations with sulfa compounds, i.e., sulfonamides (sulfamethoxazole, sulfadiazine, sulfamethazine and sulfamerazine) were tested. The method was a two-fold tube dilution test using BBL Nutrient broth in 5 ml. amounts. The inoculum was 0.1 ml. of a 10^-3 dilution 24 hour broth culture of Escherichia Coli 3100. The test was incubated at 37° C. for 18 hours. | *The potentiation effect shown is determined by measuring the minimum | inhibitory concentration (MIC) of the sulfonamide alone and in combinatio | with the compound at the indicated ratios.

P. Vulgaris = assay: Acute Mouse Protection Test (Table 6); assay type: in vivo, Female, Swiss albino mice; conditions: approximate, combination with sulfamethoxazole, medicated 1 and 5 hours post-infection, 7 days
Experimental: as §6, §7, §8, §9

E. Coli (48) = assay: Acute Mouse Protection Test (Table 6); assay type: in vivo, Female, Swiss albino mice; conditions: approximate, combination with sulfamethoxazole, medicated 1 and 5 hours post-infection, 7 days
Experimental: as §6, §7, §8, §9

[8] = Sulfadiazine, Compound/Sulfa Ratio 1:1
[9] = Sulfadiazine, Compound/Sulfa Ratio 1:5

Compound	MIC (E. Coli 114 Sensitive) [µg/mL]	MIC (E. Coli (Resistant)) [µg/mL]	MIC [1] [µg/mL]	MIC [2] [µg/mL]	MIC [3] [µg/mL]	MIC [4] [µg/mL]	MIC [5] [µg/mL]	MIC [6] [µg/mL]	MIC (Escherichia coli Juhl) [µg/mL]	MIC (Escherichia coli 3100) [µg/mL]	MIC [7] [µg/mL]	CD50, Cmpd. part of the Sulfa/Cmpd. combination (P. Mirabilis) [Mg./Kg.]	CD50, Cmpd. part of the Sulfa/Cmpd. combination (E. Coli (Juhl)) [Mg./Kg.]	Potentiation (E. Coli 3100; [8]) [X]	Potentiation (E. Coli 3100; [9]) [X]	CD50, Cmpd. part of the Sulfa/Cmpd. combination (P. Vulgaris) [Mg./Kg.]	CD50, Cmpd. part of the Sulfa/Cmpd. combination (E. Coli (48)) [Mg./Kg.]	further results
Nc1ncc(Cc2cc(Cl)c(N)c(Cl)c2)c(N)n1 [V, 2,4-Diamino-5-(4-amino-3,5-dichlorobenzyl)pyrimidine]	1.56 (≈ 5.49 µM)	400 (≈ 1410 µM)	6.2 (≈ 21.8 µM)	6.2 (≈ 21.8 µM)	25 (≈ 88 µM)	1.56 (≈ 5.49 µM)	25 (≈ 88 µM)	1.56 (≈ 5.49 µM)	0.78 (≈ 2.75 µM)	0.39 (≈ 1.37 µM)	3.1 (≈ 10.9 µM)	30	45	31.0	3.1	–	–	–
CNc1c(Cl)cc(Cc2cnc(N)nc2N)cc1Cl [VI, 2,4-Diamino-5-(3,5-dichloro-4-methylaminobenzyl)pyrimidine]	1.56 (≈ 5.23 µM)	> 400	3.1 (≈ 10.4 µM)	6.2 (≈ 20.8 µM)	6.2 (≈ 20.8 µM)	6.2 (≈ 20.8 µM)	12.5 (≈ 41.9 µM)	3.1 (≈ 10.4 µM)	6.2 (≈ 20.8 µM)	3.1 (≈ 10.4 µM)	3.1 (≈ 10.4 µM)	60	30	15.9	3.1	2	3	–
CN(C)c1c(Cl)cc(Cc2cnc(N)nc2N)cc1Cl [VIII, 2,4-Diamino-5-(3,5-dichloro-4-dimethylaminobenzyl)pyrimidine]	6.2 (≈ 19.9 µM)	100 (≈ 320 µM)	1.56 (≈ 5 µM)	3.1 (≈ 9.93 µM)	3.1 (≈ 9.93 µM)	6.2 (≈ 19.9 µM)	25 (≈ 80.1 µM)	3.1 (≈ 9.93 µM)	6.2 (≈ 19.9 µM)	6.2 (≈ 19.9 µM)	6.2 (≈ 19.9 µM)	80	45	8.0	1.6	2	3	–
COc1cc(Cc2cnc(N)nc2N)cc(OC)c1OC [Trimethoprim, reference compound]	0.2 (≈ 0.689 µM)	3000 (≈ 10300 µM)	–	–	–	–	–	–	–	–	–	–	–	–	–	–	–	increase in resistance caused by the resistant (R) factor (E. Coli (Resistant); R factor in E. Coli 114 versus sensitive): several thousand-fold
CCNc1c(Cl)cc(Cc2cnc(N)nc2N)cc1Cl [VII, 2,4-Diamino-5-(3,5-dichloro-4-ethylaminobenzyl)pyrimidine]	3.1 (≈ 9.93 µM)	200 (≈ 641 µM)	3.1 (≈ 9.93 µM)	12.5 (≈ 40 µM)	6.2 (≈ 19.9 µM)	12.5 (≈ 40 µM)	50 (≈ 160 µM)	25 (≈ 80.1 µM)	3.1 (≈ 9.93 µM)	6.2 (≈ 19.9 µM)	12.5 (≈ 40 µM)	30	35	8.0	6.2	2	2	Potentiation (E. Coli 3100; Sulfamerazine, Compound/Sulfa Ratio 1:1): 8.0 X; Potentiation (E. Coli 3100; Sulfamerazine, Compound/Sulfa Ratio 1:5): 3.2 X; Potentiation (E. Coli 3100; Sulfamethazine, Compound/Sulfa Ratio 1:1): 4.0 X; Potentiation (E. Coli 3100; Sulfamethazine, Compound/Sulfa Ratio 1:5): 3.2 X; Potentiation (E. Coli 3100; Sulfamethoxazole, Compound/Sulfa Ratio 1:1): 4.0 X; Potentiation (E. Coli 3100; Sulfamethoxazole, Compound/Sulfa Ratio 1:5): 3.1 X

— US4087528A, “2,4-Diamino-5-benzylpyrimidines” (Abbott Laboratories, priority 1976, dated 1978)
